Results published in the supplement of paper PMC10933113.
Structures can show the parent of a compound that is named as a salt. ± gives the uncertainty stated by the source.

Experiments:
[1] = test system: KeratinoSens (HaCaT ARE-luciferase) cells; experiment: AC50 of Nrf2/ARE luciferase induction; higher = less potent; details: exposure time: 24 h
[2] = test system: cysteine peptide Ac-RFAACAA-COOH; experiment: AC50 of cysteine peptide concentration-response (direction given by sign of efficacy); higher = less potent; details: incubation time: 24 h
[3] = test system: KeratinoSens (HaCaT ARE-luciferase) cells; experiment: efficacy of ARE luciferase induction relative to DMSO (% activity over DMSO); higher = stronger induction; details: exposure time: 24 h
[4] = test system: lysine peptide Ac-RFAAKAA-COOH; experiment: efficacy of lysine peptide change (negative = depletion) (% activity); higher = less depletion; details: incubation time: 24 h
[5] = test system: cysteine peptide Ac-RFAACAA-COOH; experiment: efficacy of cysteine peptide change (negative = depletion) (% activity); higher = less depletion; details: incubation time: 24 h
THP-1 [6] = experiment: efficacy of IL-8 induction relative to DMSO (% activity); higher = stronger induction; details: exposure time: 18 h
[7] = test system: KeratinoSens (HaCaT ARE-luciferase) cells; experiment: cytotoxicity AC50 (CellTiter-Fluor viability); higher = less cytotoxic; details: exposure time: 24 h
THP-1 [8] = experiment: AC50 of IL-8 secretion induction; higher = less potent; details: exposure time: 18 h

Row | Compound | AC50 of Nrf2/ARE luciferase induction [1] [µM] | AC50 [2] [µM] | efficacy of ARE luciferase induction [3] | efficacy of lysine peptide change [4] | efficacy of cysteine peptide change [5] | efficacy of IL-8 induction (THP-1 [6]) | cytotoxicity AC50 [7] [µM] | AC50 of IL-8 secretion induction (THP-1 [8]) [µM]
1 | C=CC(=O)OCCCCCCOC(=O)C=C [1,6-Hexanediol diacrylate] | 35.5 | 50.1 | 343 ± 90 | 9.01 ± 17 | -106 ± 3.3 | 9.97 ± 9.4 | 43 ± 2.8 | –
2 | Clc1nc(C(Cl)(Cl)Cl)c(Cl)c(Cl)c1Cl [2,3,4,5-Tetrachloro-6-(trichloromethyl)pyridine] | – | – | 43.7 ± 28 | 1.85 ± 3.2 | -2.03 ± 3.5 | 33.7 ± 5.8 | 37.1 ± 4.7 | 47.3
3 | O=[N+]([O-])c1cc(C(F)(F)F)c(Cl)c([N+](=O)[O-])c1Cl [2,4-Dichloro-1,3-dinitro-5-(trifluoromethyl)benzene] | – | 23.8 ± 18 | -10.8 ± 42 | 251 ± 34 | -83.7 ± 9 | 64.7 ± 13 | 26.1 ± 1.8 | 17.2
4 | CC(C)(C)c1cc(O)c(C(C)(C)C)cc1O [2,5-Di-tert-butylbenzene-1,4-diol] | 42.1 | 85.9 ± 5.6 | 175 ± 86 | -4 ± 6.9 | -80.8 ± 14 | 40.9 ± 4.8 | 34.2 ± 2.2 | –
5 | c1ccc2sc(SSN3CCOCC3)nc2c1 [2-(Morpholin-4-yldithio)-1,3-benzothiazole] | – | – | 57.3 ± 29 | – | – | 58 ± 8.8 | – | 59.9
6 | O=C(CCl)c1ccccc1 [2-Chloroacetophenone] | 35.5 | 49.4 ± 34 | 327 ± 92 | 9.03 ± 16 | -94.1 ± 28 | 29.4 ± 7.2 | 57 ± 12 | –
7 | CCN(CC)c1ccc(C(=O)c2ccccc2C(=O)O)c(O)c1 [2-[4-(Diethylamino)-2-hydroxybenzoyl]benzoic acid] | – | – | 56.6 ± 46 | -5.24 ± 15 | 1.78 ± 13 | 75.5 ± 11 | 30.5 ± 2 | 38.4
8 | CCCCCCCCn1sc(Cl)c(Cl)c1=O [4,5-Dichloro-2-octyl-3(2H)-isothiazolone] | – | 0.88 ± 0.21 | -41.3 ± 5.3 | -94.5 ± 3.8 | -98.9 ± 3.5 | 50.1 ± 4.7 | 12.1 ± 0.79 | 11.7
9 | O=c1ssc(Cl)c1Cl [4,5-Dichloro-3H-1,2-dithiol-3-one] | 21.3 | 1.4 ± 0.39 | 92.3 ± 9.5 | -36.4 ± 2.7 | -102 ± 9.4 | 24.5 ± 3.5 | 37.8 ± 11 | –
10 | CN(C)c1ccc(SC#N)cc1 [4-(Dimethylamino)phenylthiocyanate] | 34.2 | 3.84 ± 0.25 | 73.3 ± 36 | 1.57 ± 29 | -101 ± 5.4 | 87.8 ± 8.9 | 65 ± 18 | –
11 | CNc1ccc(O)cc1 [4-(Methylamino)phenol Sulfate] | – | 0.16 ± 0.06 | 65.8 ± 4.2 | -10.9 ± 3 | -82.7 ± 14 | 8.27 ± 13 | 27.3 ± 3.8 | 46.7
12 | O=c1cc(-c2ccccc2)oc2ccc3ccccc3c12 [5,6-Benzoflavone] | – | – | -34.9 ± 4.2 | – | – | 98 ± 14 | – | 79.4
13 | O=C(Nc1ccccc1)c1cc(Cl)ccc1O [5-Chlorosalicylanilide] | – | – | -20.1 ± 52 | 77.4 ± 23 | -46 ± 19 | 112 ± 7.5 | 25.2 ± 2.9 | 35.5
14 | Cc1c2ccccc2c(C)c2c1ccc1ccccc12 [7,12-Dimethylbenzanthracene] | 29.6 | 19.4 ± 11 | 69 ± 29 | -47.7 ± 5.3 | -86.2 ± 6.7 | 129 ± 15 | 57 ± 12 | –
15 | CC1COc2ccccc2N1C(=O)C(Cl)Cl (stereo not drawn) [Benoxacor] | – | – | 33.2 ± 15 | 9.43 ± 16 | 5.74 ± 9.9 | 136 ± 40 | 46.5 ± 3.1 | 79.8
16 | N=C1C=CC(=C(c2ccc(N)cc2)c2ccc(N)cc2)C=C1 [C.I. Basic Red 9 monohydrochloride] | – | 38.4 ± 2.5 | 38.6 ± 64 | 182 ± 33 | -58.7 ± 20 | 100 ± 9.3 | 34.2 ± 2.2 | 44.7
17 | CCCCNC(=O)OCC#CI [Carbamic acid, butyl-, 3-iodo-2-propynyl ester] | 27.3 | 1.05 ± 0.13 | 133 ± 50 | 64.6 ± 18 | -92.5 ± 3.8 | 20.3 ± 4.5 | 37.1 ± 4.7 | –
18 | Cl/C=C\C[N+]12CN3CN(CN(C3)C1)C2 [Chloroallyl methenamine chloride] | 73.7 | 19.6 ± 4.8 | 1290 ± 60 | -14.5 ± 14 | -102 ± 6.1 | 6.91 ± 6.8 | – | –
19 | C/C=C/C=C/CCCCCCCO [Codlelure] | 73.7 | 28.6 ± 15 | 1300 ± 400 | 20.6 ± 4.8 | -104 ± 14 | 8.57 ± 7.8 | 44.9 ± 5.2 | –
20 | COc1ccc(C(=O)/C(Br)=C\C(=O)O)cc1 [Cytembena] | 37.1 | 79.8 ± 9.2 | 417 ± 100 | 12.2 ± 14 | -95.5 ± 18 | 33.2 ± 4.5 | 57 ± 12 | –
21 | CN(C)S(=O)(=O)N(SC(F)(Cl)Cl)c1ccccc1 [Dichlofluanid] | 15.8 | 1.96 ± 0.48 | 169 ± 52 | 62.1 ± 23 | -92.1 ± 5 | 19.9 ± 4.2 | 27.2 ± 1.8 | –
22 | COc1cccc2c1C(=O)c1c(O)c3c(c(O)c1C2=O)C[C@@](O)(C(=O)CO)C[C@@H]3O[C@H]1C[C@H](N)[C@H](O)[C@H](C)O1 [Doxorubicin*] | 7.94 | 0.9 ± 0.1 | 860 ± 140 | -21.7 ± 10 | -92.2 ± 5 | 31.2 ± 4.9 | 11.3 ± 1.3 | –
23 | C=C1CC[C@H](O)C/C1=C/C=C1\CCC[C@]2(C)[C@@H]([C@H](C)/C=C/[C@H](C)C(C)C)CC[C@@H]12 [Ergocalciferol*] | 34.2 | 28.3 ± 9.3 | 78.7 ± 43 | -20.5 ± 4.3 | -99.4 ± 8.8 | 20.2 ± 3.7 | – | –
24 | CN1C[C@H](C(=O)N[C@]2(C)O[C@@]3(O)[C@@H]4CCCN4C(=O)[C@H](Cc4ccccc4)N3C2=O)C=C2c3cccc4[nH]cc(c34)C[C@H]21 [Ergotamine D-tartrate*] | 23.1 | 11.4 ± 2.6 | 61.1 ± 17 | 14.3 ± 3.5 | -98.5 ± 6.4 | 15.3 ± 4.1 | – | –
25 | CCOc1ccc2nc3cc(N)ccc3c(N)c2c1 [Ethacridine lactate monohydrate] | 29.4 | 0.29 ± 0.07 | 86.2 ± 47 | 107 ± 12 | -93.5 ± 7.5 | 13.6 ± 2.8 | – | –
26 | CC/C=C\C/C=C\C/C=C\CCCCCCCC(=O)OCC [Ethyl linolenate] | 18.4 | 9.27 ± 3.2 | 95.1 ± 71 | -51.8 ± 5.7 | -100 ± 11 | 14.7 ± 5.5 | 32.9 ± 2.2 | –
27 | c1ccc(CCNc2nc(-c3ccccc3)cs2)cc1 [Fanetizole] | 33.2 | 40 ± 4.6 | 119 ± 37 | 35 ± 23 | -113 ± 17 | 45.8 ± 14 | 41.4 ± 2.8 | –
